Laboratory results reported in patent US8158165B2, “Preventative treatment and remission of allergic diseases” (CSIR, priority 2006, dated 2012).
pEC50, pIC50, pKi: −log10 of the molar value.

Assays:
IL-5 = assay: Mediator Release, IL-5 (ConA-stimulated PBMNL cells); format: cell-based, human
Method: As regards the human IL-5 mediator release text, the test compound is incubated with Concanavalin A (ConA) (10 μg/ml)-stimulated human peripheral blood mononuclear leukocyte (PBMNL) cells in growth medium RPMI-1640 (pH 7.4) overnight at 37° C. in an incubator. The IL-5 cytokine production levels in the conditioned medium are quantified using a sandwich ELISA kit. […] These same concentrations are concurrently applied to a separate group of treated cells and evaluated for possible compound-induced cytotoxicity only if significant inhibition of release is observed. Dexamethasone is used as standard reference agent.

[1] = biological target: T1, human glucocorticoid receptors (Homo sapiens, UniProt P04150); assay: glucocorticoid receptor (GR) binding assay, [3H]Dexamethasone, HeLa S3 cells
T1 construct: endogenous in cells; host or cells: HeLa S3 (human cervix carcinoma) cells
T1 sequence (P04150 1-777): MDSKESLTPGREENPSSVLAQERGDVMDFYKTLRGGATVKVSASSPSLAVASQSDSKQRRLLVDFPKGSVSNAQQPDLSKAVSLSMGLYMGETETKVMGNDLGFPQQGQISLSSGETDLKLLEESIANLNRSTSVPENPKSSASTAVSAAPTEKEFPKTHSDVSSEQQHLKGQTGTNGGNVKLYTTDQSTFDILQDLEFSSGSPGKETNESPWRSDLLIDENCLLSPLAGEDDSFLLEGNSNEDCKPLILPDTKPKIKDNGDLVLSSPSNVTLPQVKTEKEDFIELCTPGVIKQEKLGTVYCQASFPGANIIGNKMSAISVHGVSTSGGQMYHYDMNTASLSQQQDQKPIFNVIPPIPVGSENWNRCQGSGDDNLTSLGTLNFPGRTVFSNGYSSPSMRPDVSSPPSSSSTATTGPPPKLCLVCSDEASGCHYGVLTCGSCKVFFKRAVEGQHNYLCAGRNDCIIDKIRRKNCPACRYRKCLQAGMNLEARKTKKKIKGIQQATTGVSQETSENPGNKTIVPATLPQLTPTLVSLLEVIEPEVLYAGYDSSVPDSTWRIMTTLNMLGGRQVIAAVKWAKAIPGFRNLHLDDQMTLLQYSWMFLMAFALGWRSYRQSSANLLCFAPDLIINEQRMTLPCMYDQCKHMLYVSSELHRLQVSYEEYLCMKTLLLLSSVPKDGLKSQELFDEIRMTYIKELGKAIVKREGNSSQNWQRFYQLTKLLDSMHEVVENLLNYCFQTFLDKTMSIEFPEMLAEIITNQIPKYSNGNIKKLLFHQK
Excerpt: Biochemical assay results as presented herein are reflected as the percent inhibition of specific binding or activity of a compound. The assay is described in Cidlowski, J. A. and Cidlowski, N. B., Regulation of glucocorticoid receptors by glucocorticoids in cultured HeLa S3 cells. Endocrinology 109: 1975-1982, 1981, the contents of which are incorporated herein by way of reference. This assay specifically measures the ability of active glucocorticoids in glucocorticoid receptor downregulation.
This assay measures binding of [^3H]Dexamethasone to human glucocorticoid receptors. HeLa S3 cells are suspended in modified HEPES buffer, pH 7.2, using standard techniques.
The cells (1×10^6) are incubated with 6 nM [^3H]Dexamethasone for 120 minutes at 25° C. Non-specific binding is estimated in the presence of 20 μM Dexamethasone. Membranes are filtered and washed three times and the filters are counted to determine [^3H]Dexamethasone specifically bound. Compounds are screened at 10 μM for activity.

Lipoxygenase 5-LO = assay: 5-lipoxygenase enzyme assay (5-LO); format: biochemical, human; conditions: 100 μg/ml
Method: For the 5-LO test a crude 5-lipoxygenase enzyme preparation from rat basophilic leukemia cells (RBL-1) is used. The test compound is pre-incubated with the enzyme for 5 minutes in Tris buffer pH 7.2 at room temperature. The reaction is initiated by addition of 15 μM arachidonic acid as substrate and run for an additional 8 minutes after which the reaction is terminated by addition of 70 mM citric acid and levels of 5-HETE are determined by radioimmune assay. […] NDGA (nordihydroguaretic acid) is used as standard reference agent.

pEC50 (IL-5; Homo sapiens): 4.79 | pIC50 (IL-5; Homo sapiens, as worded, read-out: IC50 mediator release Interleukin-5 (IL-5) inhibition assay): 4.79 | pIC50 [1]: 4.30 | pKi [1]: 4.64 | inhibition at 100 µM ([1]; 100 μM): 70% | inhibition at 100 µg/mL ([1]; 100 μg/ml): 104% | nH Glucocorticoid ([1]; Hill coefficient): 1.4 | Inhibition (%) Lipoxygenase 5-LO (Lipoxygenase 5-LO): 99%
Structure (SMILES): Cc1coc2c1C[C@H]1[C@H](C)C=CC(=O)[C@]1(C)C2 (relative stereo) [compound 1, 4,4a,5,9-tetrahydro-3,5,8a-trimethylnaptho[2,3-b]furan-8-one]
ANT. Mediator Release, IL-5 (IL-5; 10 nM): 17% | ANT. Mediator Release, IL-5 (IL-5; 0.1 μM): 18% | ANT. Mediator Release, IL-5 (IL-5; 1 μM): 25% | ANT. Mediator Release, IL-5 (IL-5; 10 μM): 36% | ANT. Mediator Release, IL-5 (IL-5; 100 μM): 93% | ANT. Mediator Release, IL-5 (IL-5; 100 μg/ml (Table 13)): 93%
